# Patent US20080287398A1, “COLD MENTHOL RECEPTOR-1 ANTAGONISTS” (priority 2007, published 2008)
# Where “and” joins values, the source holds several entries; their conditions need not be identical. Equal entries are not always repeated. Where two headings read alike, the source gives them in different places.
# How the values were obtained:
# Sprague-Dawley rats = experiment: CFA-induced paw radiant heat hypersensitivity; type: in vivo, rat; settings: for inhibition in vivo at 30 mg/kg: read-out: % Reversal
# Procedure: Intraplantar injection of Complete Freund's Adjuvant (CFA) in rodents results in a long-lasting inflammatory reaction, characterized by a pronounced hypersensitivity to both thermal and mechanical stimuli. This hypersensitivity peaks between 24-72 hours following injection and can last for several weeks. […] This paradigm also may be conducted with a multiple dosing or a prophylactic dosing regime designed to alter the course of hyperalgesia development. This test predicts the analgesic, anti-allodynic and antihyperalgesic effect of numerous effective clinical agents, including NSAIDS such as acetaminophen, aspirin and ibuprofen, and opioids such as morphine.
# Each rat was placed in a test chamber on a warm glass surface and allowed to acclimate for approximately 10 minutes. A radiant thermal stimulus (beam of light) was then focused through the glass onto the plantar surface of each hind paw in turn. The thermal stimulus was automatically shut off by a photoelectric relay when the paw was moved or when the cut-off time was reached (20 seconds for radiant heat at ˜5 Amps). An initial (baseline) response latency to the thermal stimulus was recorded for each animal prior to the injection of CFA. Twenty-four hours following intraplantar CFA injection, the response latency of the animal to the thermal stimulus was then re-evaluated and compared to the animal's baseline response time. […] Immediately following the post-CFA latency assessment, test compound or vehicle (usually Solutol, hydroxypropyl methylcellulose, hydroxypropyl beta-cyclodextrin or PEG-400) was administered i.p. or p.o. to rats. […] The percent reversal (% R) of hypersenstivitiy was calculated according to the following formula:
# % Reversal=(Treatment Response-CFA Response)/(Baseline Response-CFA Response)×100.
# Male Sprague Dawley rats = experiment: Inhibition of icilin-induced wet-dog shakes in rats; type: in vivo; settings: rat; 30 mg/kg i.p.; 15′ pre icilin; wet-dog shakes vs vehicle
# male CD1 mice = experiment: Acetic acid graded abdominal irritant test with a 24-hour thioglycolate pretreatment; type: in vivo; settings: mouse; 30 mg/kg p.o.; time 1 h; abdominal contractions vs vehicle
# Procedure: A chemical irritant (such as acetic acid, kaolin, bradykinin, phenyl-p-(benzo) quinine, bromo-acetylcholine, or zymosan) is injected in mice intraperitoneally, causing a contraction of the abdominal musculature, which is characterized by an elongation of the body extending through to the hind limbs. The number of such responses is quantitated and is reduced by pretreatment of analgesic agents, thus forming the basis for a screening test (Collier H O et al. Br J Pharmacol Chemother 1968, 32(2): 295-310). This type of abdominal irritant test has been used to predict the analgesic effect of numerous clinically effective agents, the potency of which in the abdominal irritant test parallels the magnitude of the dose needed in the relief of clinical pain.
# One modification of the chemically-induced abdominal irritant model of visceral pain is to pretreat animals with agents known to induce inflammatory responses following intraperitoneal injection (such as LPS, zymosan, or thioglycolate). […] Because of the up-regulation of the TRPM8 receptor in inflammation, TRPM8 antagonists that are effective at reducing the mean number of contractions are predicted to provide antiinflammatory action in human clinical use.
# The ability of compounds of Formula (I) to mitigate chemical irritant—induced abdominal contractions following a pre-conditioning inflammatory stimulus were studied. […]
# canine TRPM8 [1] = target: T1, canine TRPM8 (Canis lupus familiaris, UniProt Q1A7N1); experiment: In vitro canine TRPM8 functional assay (Ca2+-sensitive dye, FLIPR/FDSS, icilin activation); type: cell-based; settings: HEK293 cells expressing canine TRPM8, icilin activation; for inhibition at 1 µM: HEK293, 1 μM compound, read-out: % I (1 μM); for IC50: eight-point dose-response; for % I (0.5 μM): 0.5 μM compound
# T1 construct: expressed in transfected cells
# In short: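 Icilin challenge (final concentration producing ~80% of maximal response) followed a 5 min compound exposure in canine TRPM8-HEK293 cells dye-loaded with Calcium 3. Intracellular Ca2+ was read on FLIPR/FDSS. EC50 and IC50 values came from nonlinear sigmoidal dose-response fits of basal-subtracted, percent-of-maximum data averaged over quadruplicates.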
# canine TRPM8 [2] = target: T1, canine TRPM8; experiment: TRPM8 patch clamp assay (whole-cell, HEK293 cells); type: cell-based
# Procedure: For patch clamp experiments, HEK293 cells stably transfected with canine TRPM8 were cultured in DMEM supplemented with 10% fetal bovine serum, 100 units/ml penicillin, 100 μg/ml streptomycin and 1 mg/ml G418. Cells were maintained at 37° C. and in 5% CO2.
# The extracellular solution contained (in mM): NaCl, 132; EGTA, 1; KCl, 5.4; MgCl2, 0.8; HEPES, 10; glucose, 10; pH=7.4. Recordings were performed using the conventional whole-cell patch clamp technique, 1-2 days after plating cells onto glass coverslips at densities appropriate for single cell recording. Currents were amplified by a patch clamp amplifier and filtered at 2 kHz (Axopatch 200B, Molecular Devices, Union City, Calif.). Menthol (100 μM) was applied to the cell at 0.5 ml/min via a gravity-fed perfusion system. Recordings involving menthol activation were performed at 22° C.
# In experiments where temperatures were varied, temperature ramps were generated by cooling the perfusate in an in-line cooler (Model SC-20, Warner Instruments, Hamden, Conn.) controlled by a temperature controller (Model CL-100, Warner Instruments). The temperature in the vicinity of the recorded cell was measured with a custom-made miniature thermo-microprobe connected to a monitoring thermometer (Model TH-8, Physitemp, Clifton, N.J.), and sampled using Digidata 1322A and pClamp 9.0 (Molecular Devices), as were the currents concurrently measured in the whole-cell patch clamp mode. The current was continuously sampled (at 100 Hz) at a holding potential of −60 mV.
# Compounds were diluted from 10 mM DMSO stocks (stored at −20° C.) into an extracellular solution either containing 100 μM menthol or subjecting to cooling. Increasing concentrations of a compound were applied to a cell in a cumulative manner and concentration-dependent responses were measured after steady-state activation was achieved by either 100 μM menthol or cooling to 10° C. A saturating concentration of a reference antagonist was applied at the end of an experiment (either in the presence of 100 μM menthol or 10° C. temperature) to establish the baseline from which all the other measurements were subtracted.
# Percentage inhibition by a compound was calculated as follows: 100×(1−Icomp/I0); where Icomp and I0 are steady-state current amplitudes in either the presence or absence of a concentration of the compound.
# male SD rats = experiment: Chronic constriction injury (CCI) model of neuropathic pain, acetone-induced hypersensitivity; type: in vivo; settings: rat
# Procedure: Through the mesh floor a series of five applications of acetone (0.05 mL/application) was sprayed onto the bottom of the paw using a multidose syringe device. A positive response took the form of an abrupt withdrawal or lifting of the paw. The percentage of positive responses from the five trials represented the individual's overall response that was then averaged over the entire treatment group. […] An ascending dose response relationship (as in Table 10 below) was generated by addition of successive doses of test compound followed by re-assessment of behavior.
# rats = experiment: Reversal of icilin-induced behaviors (wet-dog shakes) in rats; type: in vivo; settings: rat; 30 mg/kg p.o.; 1 h post-icilin
# Procedure: In this paradigm, icilin-induced shaking was counted for 10 minutes followed by administration of a compound of Formula (I). The diminution of shaking behavior is represented as a percent inhibition relative to icilin-induced shakes in the absence of test compound administration, as described by the following formula: % Inhibition=[1−(WDS count following test compound dose/WDS count prior to test compound dose)]×100.
# [3] = po, rat, 30 mg/kg p.o., time 1 h
# [4] = HEK293 cells stably transfected with canine TRPM8, 100 μM menthol, 22° C.
# [5] = HEK293, read-out: % I (0.5 μM), 0.5 μM compound
# [6] = IC50, mode of activation Menthol (100 μM), HEK293 cells stably transfected with canine TRPM8, 100 μM menthol, 22° C.
# [7] = rat, 30 mg/kg p.o., time 2 h (printed 2 h or 2)
# [8] = read-out: IC50, mode of activation Cold (10° C.), HEK293 cells stably transfected with canine TRPM8, cooling to 10° C.
# [9] = read-out: IC50, mode of activation Menthol (100 μM), HEK293 cells stably transfected with canine TRPM8, 100 μM menthol, 22° C.
# T1 sequence (Q1A7N1 1-1104): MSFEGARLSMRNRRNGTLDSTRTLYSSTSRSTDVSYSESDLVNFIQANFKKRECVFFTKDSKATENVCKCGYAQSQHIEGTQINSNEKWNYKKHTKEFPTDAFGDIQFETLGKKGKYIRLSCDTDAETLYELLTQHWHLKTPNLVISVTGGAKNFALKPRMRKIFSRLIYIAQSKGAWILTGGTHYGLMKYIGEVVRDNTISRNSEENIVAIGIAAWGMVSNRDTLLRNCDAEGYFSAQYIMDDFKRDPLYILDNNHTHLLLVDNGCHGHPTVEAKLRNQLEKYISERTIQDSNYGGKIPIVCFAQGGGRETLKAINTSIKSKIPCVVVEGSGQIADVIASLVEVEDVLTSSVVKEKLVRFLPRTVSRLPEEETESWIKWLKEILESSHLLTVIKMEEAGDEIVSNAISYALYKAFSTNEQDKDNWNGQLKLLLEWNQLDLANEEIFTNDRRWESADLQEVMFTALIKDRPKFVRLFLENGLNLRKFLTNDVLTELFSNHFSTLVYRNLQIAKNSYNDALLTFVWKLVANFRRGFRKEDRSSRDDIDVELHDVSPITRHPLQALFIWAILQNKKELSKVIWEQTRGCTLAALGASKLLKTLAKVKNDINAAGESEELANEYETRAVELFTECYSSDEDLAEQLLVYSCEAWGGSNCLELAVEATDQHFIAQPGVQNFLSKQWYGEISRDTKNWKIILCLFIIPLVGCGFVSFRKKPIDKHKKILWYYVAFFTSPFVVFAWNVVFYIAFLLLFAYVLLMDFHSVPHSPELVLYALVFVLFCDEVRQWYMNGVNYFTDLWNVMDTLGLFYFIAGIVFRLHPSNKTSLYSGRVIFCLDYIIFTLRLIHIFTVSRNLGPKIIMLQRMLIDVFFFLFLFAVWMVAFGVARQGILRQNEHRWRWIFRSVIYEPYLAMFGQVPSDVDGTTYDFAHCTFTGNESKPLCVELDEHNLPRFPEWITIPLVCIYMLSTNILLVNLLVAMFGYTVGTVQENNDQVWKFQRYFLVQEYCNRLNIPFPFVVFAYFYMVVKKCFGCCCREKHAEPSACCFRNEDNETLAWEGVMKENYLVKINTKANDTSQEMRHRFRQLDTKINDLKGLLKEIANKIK
molecule,measurement,setting,value
"CC(C)OP(=O)(OC(C)C)C(Cc1ccc(F)c(F)c1)c1sc2ccccc2c1Br (stereo not shown) [Cpd 15, [1-(3-Bromo-benzo[b]thiophen-2-yl)-2-(3,4-difluoro-phenyl)-ethyl]-phosphonic acid diisopropyl ester]",inhibition in vivo at 30 mg/kg,"Sprague-Dawley rats; ip, rat, 30 mg/kg i.p., time 1 h",95%
same,inhibition in vivo at 30 mg/kg,Sprague-Dawley rats; [3],82%
same,ED50,"Sprague-Dawley rats; po, rat, p.o., 3-point dose-response, 10% solutol vehicle, 1 h time point, read-out: oral ED50",11.4 mg/kg
same,% Inhibition,Male Sprague Dawley rats,71.1%
same,% I,male CD1 mice,33%
same,inhibition at 1 µM,canine TRPM8 [1],99%
same,IC50,canine TRPM8 [1]; read-out: IC50,0.029 µM and 0.048 µM and 0.105 µM
"Cc1c(C(Cc2ccc(F)c(F)c2)P(=O)(OC(C)C)OC(C)C)sc2ncccc12 (stereo not shown) [Cpd 34, [2-(3,4-Difluoro-phenyl)-1-(3-methyl-thieno[2,3-b]pyridin-2-yl)-ethyl]-phosphonic acid diisopropyl ester]",% Inhibition,Male Sprague Dawley rats,28.8%
same,inhibition at 1 µM,canine TRPM8 [1],100%
same,IC50,canine TRPM8 [1]; read-out: IC50,0.12 µM and 0.15 µM and 0.2 µM
CCCP(=O)(CCC)C(OCc1ccc(F)c(F)c1)c1sc2ccccc2c1C (stereo not shown) [Cpd 42],% Inhibition,Male Sprague Dawley rats,70.6%
same,inhibition at 1 µM,canine TRPM8 [1],100%
same,IC50,canine TRPM8 [1]; read-out: IC50,0.15 µM and 0.14 µM
"Cc1c(C(Cc2ccc(F)c(F)c2)P(=O)(OCC(C)(C)C)OCC(C)(C)C)sc2ccccc12 (stereo not shown) [Cpd 53, [2-(3,4-Difluoro-phenyl)-1-(3-methyl-benzo[b]thiophen-2-yl)-ethyl]-phosphonic acid bis-(2,2-dimethyl-propyl) ester]",inhibition in vivo at 30 mg/kg,"Sprague-Dawley rats; ip, 0.5 h, rat, 30 mg/kg i.p., time 30′",77%
same,inhibition in vivo at 30 mg/kg,"Sprague-Dawley rats; po, rat, 30 mg/kg p.o., time 2 h (printed 2 h or 2)",44%
same,% Inhibition,Male Sprague Dawley rats,65.6%
same,inhibition at 1 µM,canine TRPM8 [1],100%
same,IC50,canine TRPM8 [1]; read-out: IC50,0.22 µM and 0.26 µM
"CCOP(=O)(OCC)C(Cc1ccc(OC(F)(F)F)cc1)c1sc2ccccc2c1Br (stereo not shown) [Cpd 155, [1-(3-Bromo-benzo[b]thiophen-2-yl)-2-(4-trifluoromethoxy-phenyl)-ethyl]-phosphonic acid diethyl ester]",inhibition in vivo at 30 mg/kg,"Sprague-Dawley rats; Rattus norvegicus, po, 1 h",138%
same,IC50,canine TRPM8 [2]; [4],12.5 nM
same,inhibition at 0.5 µM,canine TRPM8 [1]; [5],104%
same,IC50,canine TRPM8 [1]; IC50 (μM),0.046 µM and 0.12 µM and 0.09 µM
"CC(C)OP(=O)(OC(C)C)[C@H](Cc1ccc(F)c(F)c1)c1sc2ccccc2c1Br [Cpd 235, (R)-[1-(3-Bromo-benzo[b]thiophen-2-yl)-2-(3,4-difluoro-phenyl)-ethyl]-phosphonic acid diisopropyl ester]",inhibition in vivo at 30 mg/kg,Sprague-Dawley rats; [3],45%
same,IC50,canine TRPM8 [2]; [6],59.2 nM
same,% of Allodynic Baseline,"male SD rats; 30 mg/kg p.o., preRx 1 hr",34.3%
same,IC50,canine TRPM8 [1]; read-out: IC50,0.253 µM
"CCOP(=O)(OCC)C(Cc1ccc(F)cc1)c1sc2ccccc2c1Br (stereo not shown) [Cpd 238, [1-(3-Bromo-benzo[b]thiophen-2-yl)-2-(4-fluoro-phenyl)-ethyl]-phosphonic acid diethyl ester]",inhibition in vivo at 30 mg/kg,"Sprague-Dawley rats; Rattus norvegicus, po, 2 h",56%
same,IC50,canine TRPM8 [2]; [4],0.53 nM
same,inhibition at 0.5 µM,canine TRPM8 [1]; [5],104%
same,IC50,canine TRPM8 [1]; IC50 (μM),0.044 µM
"CC(C)OP(=O)(OC(C)C)C(Cc1ccc(F)c(C(F)(F)F)c1)c1sc2ccccc2c1Br (stereo not shown) [Cpd 241, [1-(3-Bromo-benzo[b]thiophen-2-yl)-2-(4-fluoro-3-trifluoromethyl-phenyl)-ethyl]-phosphonic acid diisopropyl ester]",inhibition in vivo at 30 mg/kg,Sprague-Dawley rats; [3],72%
same,IC50,canine TRPM8 [2]; [6],1.6 nM
same,inhibition at 0.5 µM,"canine TRPM8 [1]; HEK293, 0.5 μM compound, read-out: % I (0.5 μM)",102%
same,inhibition at 1 µM,canine TRPM8 [1],103%
same,IC50,canine TRPM8 [1]; read-out: IC50,0.038 µM
(S)-[1-(3-Bromo-benzo[b]thiophen-2-yl)-2-(4-fluoro-phenyl)-ethyl]-phosphonic acid diisopropyl ester [Cpd 239],% Reversal,Sprague-Dawley rats; [7],36%
same,% Inhibition,rats,48.4%
same,IC50,canine TRPM8 [2]; [8],5.8 nM
same,IC50,canine TRPM8 [2]; [9],3 nM
same,% of Allodynic Baseline,"male SD rats; 30 mg/kg p.o., preRx 1 hr",29.4%
same,% I (0.5 μM),canine TRPM8 [1],"103, 103%"
same,IC50,canine TRPM8 [1]; read-out: IC50,0.037 µM and 0.027 µM and 0.031 µM
(S)-[1-(3-Bromo-benzo[b]thiophen-2-yl)-2-(4-trifluoromethoxy-phenyl)-ethyl]-phosphonic acid diisopropyl ester [Cpd 236],% Reversal,Sprague-Dawley rats; [7],25%
same,% Inhibition,rats,36.8%
same,IC50,canine TRPM8 [2]; [8],2.9 nM
same,IC50,canine TRPM8 [2]; [9],1.4 nM
same,% of Allodynic Baseline,"male SD rats; 30 mg/kg p.o., preRx 4 hr",28.6%
same,% of Allodynic Baseline,"male SD rats; 100 mg/kg p.o., preRx 4 hr",68.8%
same,% I (0.5 μM),canine TRPM8 [1],"103, 103%"
